Columns and labels:
Experiment in all cases: radiometric filter-binding kinase assay, Kinase HotSpot
Conditions in all cases: compound 0.5 µM; ATP 10 µM
[1] = biological target: KDR (human) (UniProt P35968)
[2] = biological target: CAMK2B (human) (UniProt Q13554)
[3] = biological target: LIMK1 (human) (UniProt P53667)
[4] = biological target: PRKCA (human) (UniProt P17252)
[5] = biological target: PTK2B (human) (UniProt Q14289)
[6] = biological target: NEK9 (human) (UniProt Q8TD19)
[7] = biological target: MAPK8 (human) (UniProt P45983)
[8] = biological target: MAP3K7 TAB1 (human) (UniProt O43318+Q15750)
[9] = biological target: NTRK1 (human) (UniProt P04629)
[10] = biological target: GRK6 (human) (UniProt P43250)
[11] = biological target: DDR2 (human) (UniProt Q16832)
[12] = biological target: CLK3 (human) (UniProt P49761)
[13] = biological target: CDK9 CCNK (human) (UniProt O75909+P50750)
[14] = biological target: SYK (human) (UniProt P43405)
[15] = biological target: MAP2K2 (human) (UniProt P36507)
[16] = biological target: CAMK2A (human) (UniProt Q9UQM7)
[17] = biological target: CDK5 CDK5R1 p25 (human) (UniProt Q00535+Q15078)
[18] = biological target: RPS6KA3 KD1 KD2 (human) (UniProt P51812)
[19] = biological target: PDGFRA (human) (UniProt P16234)
[20] = biological target: FLT1 (human) (UniProt P17948)
[21] = biological target: MAP3K14 (human) (UniProt Q99558)
[22] = biological target: EPHB3 (human) (UniProt P54753)
[23] = biological target: MAPK9 (human) (UniProt P45984)
[24] = biological target: MLTK (human) (UniProt Q9NYL2)
[25] = biological target: MAP3K8 (human) (UniProt P41279)
[26] = biological target: CDK5 CDK5R1 p35 (human) (UniProt Q00535+Q15078)
[27] = biological target: STK4 (human) (UniProt Q13043)
[28] = biological target: STK24 (human) (UniProt Q9Y6E0)
[29] = biological target: MAP4K5 (human) (UniProt Q9Y4K4)
[30] = biological target: IRAK4 (human) (UniProt Q9NWZ3)
[31] = biological target: STK39 (human) (UniProt Q9UEW8)
[32] = biological target: CAMKK1 (human) (UniProt Q8N5S9)
[33] = biological target: PIM3 (human) (UniProt Q86V86)
[34] = biological target: CAMK4 (human) (UniProt Q16566)
[35] = biological target: STK33 (human) (UniProt Q9BYT3)
[36] = biological target: CAMK2D (human) (UniProt Q13557)
[37] = biological target: BTK (human) (UniProt Q06187)
[38] = biological target: TAOK1 (human) (UniProt Q7L7X3)
[39] = biological target: CAMK1 (human) (UniProt Q14012)
[40] = biological target: TTK (human) (UniProt P33981)
[41] = biological target: CDK6 CCND3 (human) (UniProt P30281+Q00534)

Sequence of CAMK4 (human) (Q16566 whole entry, looked up): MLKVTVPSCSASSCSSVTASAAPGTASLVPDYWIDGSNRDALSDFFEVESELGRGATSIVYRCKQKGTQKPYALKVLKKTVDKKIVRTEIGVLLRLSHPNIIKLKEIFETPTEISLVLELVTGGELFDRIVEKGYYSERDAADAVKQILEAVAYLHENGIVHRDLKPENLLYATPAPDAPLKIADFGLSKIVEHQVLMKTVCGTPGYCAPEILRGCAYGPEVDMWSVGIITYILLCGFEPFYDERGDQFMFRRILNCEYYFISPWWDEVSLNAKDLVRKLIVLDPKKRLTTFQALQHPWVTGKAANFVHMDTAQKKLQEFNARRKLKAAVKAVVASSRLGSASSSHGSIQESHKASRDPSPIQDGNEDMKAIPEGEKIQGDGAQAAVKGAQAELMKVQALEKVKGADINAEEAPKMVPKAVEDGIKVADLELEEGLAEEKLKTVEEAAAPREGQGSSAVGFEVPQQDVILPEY
Sequence of CDK5 CDK5R1 p25 (human) (Q00535 whole entry, looked up): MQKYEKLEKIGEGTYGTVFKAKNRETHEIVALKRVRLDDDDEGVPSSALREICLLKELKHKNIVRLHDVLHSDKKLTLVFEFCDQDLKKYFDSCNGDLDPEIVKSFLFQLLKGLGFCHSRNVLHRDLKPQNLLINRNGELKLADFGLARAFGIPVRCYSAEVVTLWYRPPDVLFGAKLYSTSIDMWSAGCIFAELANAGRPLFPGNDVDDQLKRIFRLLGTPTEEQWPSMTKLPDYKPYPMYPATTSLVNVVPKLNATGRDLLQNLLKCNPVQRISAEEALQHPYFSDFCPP
Sequence of CDK5 CDK5R1 p25 (human) (Q15078 whole entry, looked up): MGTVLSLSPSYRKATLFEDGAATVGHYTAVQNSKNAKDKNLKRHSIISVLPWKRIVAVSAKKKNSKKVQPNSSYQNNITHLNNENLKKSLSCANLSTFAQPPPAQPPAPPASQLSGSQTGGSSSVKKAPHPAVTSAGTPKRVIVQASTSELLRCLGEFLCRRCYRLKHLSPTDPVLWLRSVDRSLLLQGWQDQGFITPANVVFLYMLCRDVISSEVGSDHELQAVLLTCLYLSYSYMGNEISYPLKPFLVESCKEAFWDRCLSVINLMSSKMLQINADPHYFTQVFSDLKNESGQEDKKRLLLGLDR
Sequence of CAMK1 (human) (Q14012 whole entry, looked up): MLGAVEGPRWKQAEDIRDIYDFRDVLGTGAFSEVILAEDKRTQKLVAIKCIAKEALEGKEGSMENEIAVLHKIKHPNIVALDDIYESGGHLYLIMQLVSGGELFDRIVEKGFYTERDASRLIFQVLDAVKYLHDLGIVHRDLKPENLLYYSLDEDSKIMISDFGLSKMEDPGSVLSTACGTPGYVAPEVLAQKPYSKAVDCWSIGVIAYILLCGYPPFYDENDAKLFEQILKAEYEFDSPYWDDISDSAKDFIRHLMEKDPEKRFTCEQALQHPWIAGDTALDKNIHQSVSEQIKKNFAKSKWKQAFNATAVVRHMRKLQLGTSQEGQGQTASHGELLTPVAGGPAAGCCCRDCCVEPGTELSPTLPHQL
Sequence of CDK9 CCNK (human) (O75909 whole entry, looked up): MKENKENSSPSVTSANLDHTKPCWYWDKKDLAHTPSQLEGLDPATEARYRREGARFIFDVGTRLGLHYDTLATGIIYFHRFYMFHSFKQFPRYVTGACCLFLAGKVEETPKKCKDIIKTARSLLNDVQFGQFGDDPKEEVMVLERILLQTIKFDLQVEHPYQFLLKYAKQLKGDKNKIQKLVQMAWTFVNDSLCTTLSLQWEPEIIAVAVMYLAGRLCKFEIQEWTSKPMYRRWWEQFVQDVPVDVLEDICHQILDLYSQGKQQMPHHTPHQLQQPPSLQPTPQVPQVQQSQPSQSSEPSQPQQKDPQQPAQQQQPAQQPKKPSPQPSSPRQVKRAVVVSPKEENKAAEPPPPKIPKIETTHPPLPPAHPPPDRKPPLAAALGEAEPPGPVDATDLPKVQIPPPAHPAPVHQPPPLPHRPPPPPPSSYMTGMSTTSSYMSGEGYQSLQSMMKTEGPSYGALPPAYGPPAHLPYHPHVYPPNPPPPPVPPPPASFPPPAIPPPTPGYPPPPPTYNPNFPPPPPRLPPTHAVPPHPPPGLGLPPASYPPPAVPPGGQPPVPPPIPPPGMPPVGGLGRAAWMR
Sequence of CDK9 CCNK (human) (P50750 whole entry, looked up): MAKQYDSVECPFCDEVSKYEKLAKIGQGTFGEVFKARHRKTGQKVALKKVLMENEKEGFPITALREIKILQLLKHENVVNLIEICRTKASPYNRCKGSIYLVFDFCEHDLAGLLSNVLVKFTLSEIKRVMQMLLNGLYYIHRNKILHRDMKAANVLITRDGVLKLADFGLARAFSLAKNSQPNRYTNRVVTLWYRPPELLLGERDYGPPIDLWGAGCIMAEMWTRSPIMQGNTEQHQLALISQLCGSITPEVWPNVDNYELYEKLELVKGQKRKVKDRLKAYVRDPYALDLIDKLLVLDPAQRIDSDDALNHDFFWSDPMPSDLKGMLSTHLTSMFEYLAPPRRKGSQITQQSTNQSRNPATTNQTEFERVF
Sequence of NTRK1 (human) (P04629 whole entry, looked up): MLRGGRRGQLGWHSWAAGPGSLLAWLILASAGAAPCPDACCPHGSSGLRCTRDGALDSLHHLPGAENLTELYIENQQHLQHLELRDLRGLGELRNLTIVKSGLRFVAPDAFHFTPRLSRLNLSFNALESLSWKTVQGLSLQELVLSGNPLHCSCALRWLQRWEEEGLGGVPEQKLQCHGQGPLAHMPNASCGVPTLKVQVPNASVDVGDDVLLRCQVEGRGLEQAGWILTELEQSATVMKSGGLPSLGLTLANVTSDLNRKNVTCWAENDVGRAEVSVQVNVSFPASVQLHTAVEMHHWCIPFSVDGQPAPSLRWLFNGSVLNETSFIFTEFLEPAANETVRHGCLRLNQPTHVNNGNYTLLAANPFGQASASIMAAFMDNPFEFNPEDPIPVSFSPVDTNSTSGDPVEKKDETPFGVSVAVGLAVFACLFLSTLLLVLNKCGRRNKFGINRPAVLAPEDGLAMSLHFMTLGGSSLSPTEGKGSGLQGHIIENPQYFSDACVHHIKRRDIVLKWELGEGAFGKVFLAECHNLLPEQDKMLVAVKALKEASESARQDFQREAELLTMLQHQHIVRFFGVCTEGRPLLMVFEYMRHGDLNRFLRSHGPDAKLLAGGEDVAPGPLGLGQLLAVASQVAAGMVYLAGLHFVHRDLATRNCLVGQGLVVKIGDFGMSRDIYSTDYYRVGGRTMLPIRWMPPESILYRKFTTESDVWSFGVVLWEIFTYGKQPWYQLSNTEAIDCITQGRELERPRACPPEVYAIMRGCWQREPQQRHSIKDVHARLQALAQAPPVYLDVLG
Sequence of MAPK9 (human) (P45984 whole entry, looked up): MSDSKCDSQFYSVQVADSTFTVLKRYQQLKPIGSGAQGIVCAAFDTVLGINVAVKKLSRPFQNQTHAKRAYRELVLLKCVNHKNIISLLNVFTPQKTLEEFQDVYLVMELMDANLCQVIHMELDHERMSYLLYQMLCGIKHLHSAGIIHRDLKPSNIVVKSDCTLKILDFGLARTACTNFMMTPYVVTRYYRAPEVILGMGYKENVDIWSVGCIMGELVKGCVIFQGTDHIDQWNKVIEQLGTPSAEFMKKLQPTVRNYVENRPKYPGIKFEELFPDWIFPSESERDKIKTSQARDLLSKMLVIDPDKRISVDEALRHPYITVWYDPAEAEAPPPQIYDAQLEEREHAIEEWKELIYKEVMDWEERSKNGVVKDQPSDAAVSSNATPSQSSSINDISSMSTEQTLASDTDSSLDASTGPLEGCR
Sequence of NEK9 (human) (Q8TD19 whole entry, looked up): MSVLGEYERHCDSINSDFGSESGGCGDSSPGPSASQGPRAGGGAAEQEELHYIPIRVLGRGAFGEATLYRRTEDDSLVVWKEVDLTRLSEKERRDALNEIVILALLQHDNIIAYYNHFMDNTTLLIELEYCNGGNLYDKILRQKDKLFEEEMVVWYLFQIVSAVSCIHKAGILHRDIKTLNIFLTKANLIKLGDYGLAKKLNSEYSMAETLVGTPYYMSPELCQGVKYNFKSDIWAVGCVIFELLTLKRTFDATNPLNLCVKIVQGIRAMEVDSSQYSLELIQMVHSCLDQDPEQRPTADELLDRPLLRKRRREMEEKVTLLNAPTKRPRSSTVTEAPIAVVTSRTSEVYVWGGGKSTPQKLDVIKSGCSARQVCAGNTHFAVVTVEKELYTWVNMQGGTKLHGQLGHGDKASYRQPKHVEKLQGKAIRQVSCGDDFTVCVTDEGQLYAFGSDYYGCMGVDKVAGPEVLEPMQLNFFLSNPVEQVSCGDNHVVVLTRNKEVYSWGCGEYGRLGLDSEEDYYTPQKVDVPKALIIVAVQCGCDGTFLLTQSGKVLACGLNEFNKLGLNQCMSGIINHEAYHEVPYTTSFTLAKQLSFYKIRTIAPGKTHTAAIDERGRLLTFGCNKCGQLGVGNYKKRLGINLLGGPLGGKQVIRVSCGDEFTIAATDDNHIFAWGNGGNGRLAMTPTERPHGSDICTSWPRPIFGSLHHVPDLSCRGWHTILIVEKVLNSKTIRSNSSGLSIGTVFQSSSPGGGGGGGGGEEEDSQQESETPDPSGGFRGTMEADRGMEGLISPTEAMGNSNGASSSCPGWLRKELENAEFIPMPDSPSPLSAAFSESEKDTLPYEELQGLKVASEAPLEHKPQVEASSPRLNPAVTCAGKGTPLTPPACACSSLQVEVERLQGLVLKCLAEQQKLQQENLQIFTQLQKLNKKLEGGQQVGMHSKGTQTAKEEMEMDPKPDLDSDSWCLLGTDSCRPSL
Sequence of MAP2K2 (human) (P36507 whole entry, looked up): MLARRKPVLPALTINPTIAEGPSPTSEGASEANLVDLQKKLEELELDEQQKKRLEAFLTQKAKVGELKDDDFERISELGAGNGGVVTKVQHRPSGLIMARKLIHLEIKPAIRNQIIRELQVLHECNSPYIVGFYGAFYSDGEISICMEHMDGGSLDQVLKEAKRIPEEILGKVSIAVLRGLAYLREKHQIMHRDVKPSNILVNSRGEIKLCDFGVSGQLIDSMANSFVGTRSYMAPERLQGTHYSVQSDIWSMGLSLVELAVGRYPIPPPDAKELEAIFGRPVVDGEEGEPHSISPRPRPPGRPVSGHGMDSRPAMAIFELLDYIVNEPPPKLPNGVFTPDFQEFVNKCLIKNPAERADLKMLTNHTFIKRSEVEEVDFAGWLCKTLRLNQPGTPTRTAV

With `O=C1NC(=O)/C(=C\c2ccc3nccnc3c2)S1` the residual activity [1] was 92.6%, the residual activity [2] was 89.3% and the residual activity [3] was 87.4%. The residual activity [4] was 102%, the residual activity [5] was 106% and the residual activity [6] was 111%. For the same molecule, the residual activity [7] was 91.5%, the residual activity [8] was 98.7% and the residual activity [9] was 94.2%. It also gave a residual activity [10] of 97%, a residual activity [11] of 93.4% and a residual activity [12] of 80.8%. The residual activity [13] was 86%, the residual activity [14] was 98% and the residual activity [15] was 93.5%. It also gave a residual activity [16] of 92.3%, a residual activity [17] of 83.2% and a residual activity [18] of 101%. For the same molecule, the residual activity [19] was 106%, the residual activity [20] was 87.5% and the residual activity [21] was 101%. The residual activity [22] was 94.5%, the residual activity [23] was 96% and the residual activity [24] was 93.6%. For the same molecule, the residual activity [25] was 99.6%, the residual activity [26] was 97.9% and the residual activity [27] was 95%. It also gave a residual activity [28] of 93.2%, a residual activity [29] of 85.4% and a residual activity [30] of 99.9%. It also gave a residual activity [31] of 104%, a residual activity [32] of 81.8% and a residual activity [33] of 67.3%. For the same molecule, the residual activity [34] was 106%, the residual activity [35] was 66.3% and the residual activity [36] was 93.7%. It also gave a residual activity [37] of 104%, a residual activity [38] of 82.8% and a residual activity [39] of 95.7%. For the same molecule, the residual activity [40] was 102% and the residual activity [41] was 95.8%.

`O=C1NC(=O)C(c2c[nH]c3ccccc23)=C1c1c[nH]c2ccccc12` was tested, and the residual activity [1] was 60.8%, the residual activity [2] was 96.9% and the residual activity [3] was 103%. For the same molecule, the residual activity [4] was 27.7%, the residual activity [5] was 95.6% and the residual activity [6] was 97.3%. The residual activity [7] was 95.1%, the residual activity [8] was 97% and the residual activity [9] was 92%. For the same molecule, the residual activity [10] was 101%, the residual activity [11] was 101% and the residual activity [12] was 102%. For the same molecule, the residual activity [13] was 80%, the residual activity [14] was 103% and the residual activity [15] was 82.7%. The residual activity [16] was 85.3%, the residual activity [17] was 87.4% and the residual activity [18] was 46.7%. It also gave a residual activity [19] of 90.6%, a residual activity [20] of 53.9% and a residual activity [21] of 91%. For the same molecule, the residual activity [22] was 94.3%, the residual activity [23] was 95.4% and the residual activity [24] was 107%. For the same molecule, the residual activity [25] was 90.8%, the residual activity [26] was 79.5% and the residual activity [27] was 61.8%. For the same molecule, the residual activity [28] was 61.5%, the residual activity [29] was 87.1% and the residual activity [30] was 92%. For the same molecule, the residual activity [31] was 93.6%, the residual activity [32] was 114% and the residual activity [33] was 32.7%. For the same molecule, the residual activity [34] was 100%, the residual activity [35] was 97.7% and the residual activity [36] was 65%. The residual activity [37] was 98.2%, the residual activity [38] was 93.7% and the residual activity [39] was 105%. It also gave a residual activity [40] of 106% and a residual activity [41] of 103%.

Work on `Cn1cnc2cc3c(Nc4cccc(Br)c4)ncnc3cc21` yielded a residual activity [1] of 71.7%, a residual activity [2] of 102% and a residual activity [3] of 99%. The residual activity [4] was 79%, the residual activity [5] was 92.7% and the residual activity [6] was 90%. The residual activity [7] was 96.9%, the residual activity [8] was 98.6% and the residual activity [9] was 90.8%. It also gave a residual activity [10] of 107%, a residual activity [11] of 102% and a residual activity [12] of 100%. The residual activity [13] was 100%, the residual activity [14] was 98.5% and the residual activity [15] was 101%. The residual activity [16] was 102%, the residual activity [17] was 88% and the residual activity [18] was 105%. For the same molecule, the residual activity [19] was 107%, the residual activity [20] was 77.4% and the residual activity [21] was 90.6%. For the same molecule, the residual activity [22] was 93.8%, the residual activity [23] was 92.3% and the residual activity [24] was 93.3%. For the same molecule, the residual activity [25] was 90.1%, the residual activity [26] was 84.6% and the residual activity [27] was 94.2%. It also gave a residual activity [28] of 83.4%, a residual activity [29] of 56.1% and a residual activity [30] of 89.1%. For the same molecule, the residual activity [31] was 111%, the residual activity [32] was 107% and the residual activity [33] was 104%. It also gave a residual activity [34] of 98.6%, a residual activity [35] of 99.3% and a residual activity [36] of 92.2%. It also gave a residual activity [37] of 86.8%, a residual activity [38] of 92.4% and a residual activity [39] of 106%. The residual activity [40] was 95.7% and the residual activity [41] was 107%.

From the kinase profiling compilation of Christmann-Franck et al. (2016)
